# Test results: ChEMBL document CHEMBL1201862, “PubChem BioAssay data set” (2004)
#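 48-hour exposure; five concentrations; linearly interpolated endpoints. Abbreviation: GI50, concentration required for 50% inhibition of growth.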 Active and inactive are the calls of the source. No stated cut-off is given here; in the data, active = GI50 up to about 1.1 µM and inactive = higher.
# Tests used:
# Test in all cases: inhibition of tumour cell growth, NCI panel, 48 h
# [1] = system: A498
# [2] = system: COLO 205
# [3] = system: HCT-116
# [4] = system: HCT-15
# [5] = system: NCI-H23
# [6] = system: OVCAR-3
# [7] = system: OVCAR-8
# [8] = system: SF-268
# [9] = system: SK-MEL-28
# [10] = system: SN12C
# [11] = system: SNB-75
# [12] = system: U-251
# [13] = system: M14
# [14] = system: SK-MEL-5
# [15] = system: SK-OV-3
# [16] = system: MOLT-4
Structure (SMILES),GI50 [1],GI50 [2],GI50 [3],GI50 [4],GI50 [5],GI50 [6],GI50 [7],GI50 [8],GI50 [9],GI50 [10],GI50 [11],GI50 [12],GI50 [13],GI50 [14],GI50 [15],GI50 [16]
O=C(O)NC(c1ccccc1)C(NC(=O)c1ccccc1)c1ccccc1 (configuration not stated),> 100 µM (inactive),> 100 µM (inactive),> 100 µM (inactive),> 100 µM,> 100 µM (inactive),> 100 µM (inactive),> 100 µM (inactive),> 100 µM (inactive),> 100 µM (inactive),> 100 µM (inactive),> 100 µM (inactive),> 100 µM (inactive),,,,
COC(=O)CCC(NC(=S)N/N=C(\C)c1cccs1)C(=O)OC (configuration not stated),> 100 µM (inactive),> 100 µM (inactive),> 100 µM (inactive),> 100 µM,> 100 µM (inactive),> 100 µM (inactive),> 100 µM (inactive),> 100 µM (inactive),> 100 µM (inactive),> 100 µM (inactive),> 100 µM (inactive),> 100 µM (inactive),> 100 µM (inactive),> 100 µM (inactive),> 100 µM (inactive),
Cn1c(=O)n(C2(C)C[Se]C2)c2ccccc21,> 100 µM (inactive),> 100 µM (inactive),> 100 µM (inactive),> 100 µM,> 100 µM (inactive),,> 100 µM (inactive),> 100 µM (inactive),> 100 µM (inactive),> 100 µM (inactive),> 100 µM (inactive),> 100 µM (inactive),> 100 µM (inactive),> 100 µM (inactive),> 100 µM (inactive),> 100 µM (inactive)
CC1=C2C=CC(=O)C[C@@]2(C)CCC1,> 100 µM (inactive),> 100 µM (inactive),> 100 µM (inactive),> 100 µM,> 100 µM (inactive),> 100 µM (inactive),> 100 µM (inactive),> 100 µM (inactive),> 100 µM (inactive),> 100 µM (inactive),69.2 µM (inactive),> 100 µM (inactive),> 100 µM (inactive),> 100 µM (inactive),> 100 µM (inactive),> 100 µM (inactive)
Cc1nc2c(s/c(=N\N)n2-c2ccccc2)c(=O)[nH]1,> 100 µM (inactive),> 100 µM (inactive),> 100 µM (inactive),> 100 µM,> 100 µM (inactive),> 100 µM (inactive),> 100 µM (inactive),> 100 µM (inactive),> 100 µM (inactive),> 100 µM (inactive),> 100 µM (inactive),> 100 µM (inactive),> 100 µM (inactive),> 100 µM (inactive),> 100 µM (inactive),> 100 µM (inactive)
COc1ccc2[nH]c3c(C)c4cc[n+](COC(=O)c5ccccc5)cc4c(C)c3c2c1,1.11 µM (active),,0.0378 µM (active),,0.428 µM (active),1.48 µM (inactive),0.0851 µM (active),0.286 µM (active),1.31 µM (inactive),0.197 µM (active),0.703 µM (active),0.392 µM (active),0.641 µM (active),,1.22 µM (inactive),0.0379 µM (active)
CC1=NNC(=O)C2CCC(=O)N12 (configuration not stated),> 100 µM (inactive),> 100 µM (inactive),> 100 µM (inactive),> 100 µM,,> 100 µM (inactive),> 100 µM (inactive),> 100 µM (inactive),> 100 µM (inactive),> 100 µM (inactive),> 100 µM (inactive),> 100 µM (inactive),> 100 µM (inactive),> 100 µM (inactive),> 100 µM (inactive),> 100 µM (inactive)
O=C1OC2C(O)COC2(O)C1(O)Cc1c[nH]c2ccccc12.O=C1OC2C(O)COC2(OCc2c[nH]c3ccccc23)C1O (configuration not stated),> 100 µM (inactive),> 100 µM (inactive),> 100 µM (inactive),> 100 µM,> 100 µM (inactive),> 100 µM (inactive),> 100 µM (inactive),> 100 µM (inactive),,> 100 µM (inactive),> 100 µM (inactive),> 100 µM (inactive),> 100 µM (inactive),> 100 µM (inactive),> 100 µM (inactive),> 100 µM (inactive)
CCCCC(C)/C=C/C(O)=C1\C(=O)O/C(=C\C(=O)O)C1=O (configuration not stated),> 100 µM (inactive),> 100 µM (inactive),> 100 µM (inactive),> 100 µM,> 100 µM (inactive),> 100 µM (inactive),> 100 µM (inactive),,> 100 µM (inactive),> 100 µM (inactive),> 100 µM (inactive),> 100 µM (inactive),> 100 µM (inactive),> 100 µM (inactive),> 100 µM (inactive),> 100 µM (inactive)
CCc1cccc(C)c1NC(=O)CC1C(=O)Nc2ccccc2S1(=O)=O (configuration not stated),21 µM (inactive),,15.8 µM (inactive),12 µM,15.7 µM (inactive),15.2 µM (inactive),19.8 µM (inactive),20.8 µM (inactive),18.5 µM (inactive),20.8 µM (inactive),16 µM (inactive),16.9 µM (inactive),18.9 µM (inactive),13.7 µM (inactive),,14.1 µM (inactive)
CC(C)(C)Sc1nnc(SC(C)(C)C)c2c(SC(C)(C)C)nnc(O)c12,14 µM (inactive),12.4 µM (inactive),3.78 µM (inactive),4.31 µM,10.9 µM (inactive),10.7 µM (inactive),10 µM (inactive),7.53 µM (inactive),,10.2 µM (inactive),11.8 µM (inactive),5.62 µM (inactive),14.8 µM (inactive),5.35 µM (inactive),17.9 µM (inactive),3.37 µM (inactive)
O=c1c2ccccc2nc(-c2ccccc2)n1NC(=S)Nc1ccccc1,> 100 µM (inactive),> 100 µM (inactive),> 100 µM (inactive),> 100 µM,> 100 µM (inactive),,> 100 µM (inactive),> 100 µM (inactive),34.8 µM (inactive),> 100 µM (inactive),38.3 µM (inactive),> 100 µM (inactive),> 100 µM (inactive),89.1 µM (inactive),> 100 µM (inactive),> 100 µM (inactive)
Cc1cc2oc(-c3ccccc3)c(C)c(=O)c2c2c1OC(C)(C)S2,,61.2 µM (inactive),71 µM (inactive),> 100 µM,> 100 µM (inactive),> 100 µM (inactive),> 100 µM (inactive),> 100 µM (inactive),60.7 µM (inactive),> 100 µM (inactive),> 100 µM (inactive),> 100 µM (inactive),> 100 µM (inactive),68.7 µM (inactive),> 100 µM (inactive),60.3 µM (inactive)
CCOC(=O)C(C(=O)OCC)P(=S)(S)c1ccccc1 (configuration not stated),> 100 µM (inactive),> 100 µM (inactive),,,> 100 µM (inactive),,> 100 µM (inactive),> 100 µM (inactive),> 100 µM (inactive),> 100 µM (inactive),,> 100 µM (inactive),,> 100 µM (inactive),> 100 µM (inactive),> 100 µM (inactive)
